Assay results taken from patent publication US20040073958A1, “Transgenic animal having drug metabolism enzyme gene and utilization thereof” (priority 2001, published 2004).
Where “and” joins values, the source holds several entries; their conditions need not be identical. Identical values can stand only once.

Tests used:
rats and Rhesus monkeys = conditions: cited from earlier work; for teratogenicity in rats as compared with Rhesus monkeys: administered to rats at corresponding generation stages
rat = conditions: early test using a rat; cited from earlier work
36p Tg mice = test: Teratogenicity and fetal toxicity effects of thalidomide in 36p Tg mouse; conditions: for Details of Malformation: number of fetuses in brackets
Description: Frozen eggs of the transgenic mouse were prepared in accordance with “Example 4: Production of fertilized egg,” and fertilized eggs of the transgenic mouse were cryopreserved. The frozen fertilized eggs were melted, and 20 eggs were respectively transplanted into the oviducts of pseudopregnant female mice of the ICR lineage, and implanted. On the 9th day of gestation, thalidomide was administered into the maternal peritoneal cavity. The effect of thalidomide was tested at the dosage of: 100 mg/kg, and 200 mg/kg. A mixed solution of Tween 20 and physiological saline (1:3) was used as a vehicle. On the day before the delivery, which is the 19th day of gestation, the maternal body was subjected to laparotomy to observe the conditions inside the womb and the presence of teratogenicity and fetal toxicity in the generated and grown fetus. Also, tissues were collected from the fetuses generated and grown in the womb, or vestige of fetal matter in the womb, DNA was extracted therefrom, and the genotype was assayed by PCR The results are summarized in Table 4.

rabbit = conditions: administration of cyclooxygenase inhibitor; cited from earlier work
Salmonella TA100 = conditions: cited from earlier work

For `O=c1[nH]cc(F)c(=O)[nH]1` [5-fluorouracil], the “teratogenicity in rats as compared with Rhesus monkeys” value (rats and Rhesus monkeys) is given as “teratogenicity was observed at a lower dose”.
In the case of `O=C1CCC(N2C(=O)c3ccccc3C2=O)C(=O)N1` (centres unmarked) [Thalidomide, thalidomide], the “malformation of the fetus” value (rat) is given as “did not develop any malformation”, the “sensitivity of monkeys relative to that of rats” value (rats and Rhesus monkeys; teratogenic sensitivity, monkeys versus rats) is given as ≥ 10 times and the “sensitivity of rats compared with that of Rhesus monkeys” value (rats and Rhesus monkeys; teratogenic sensitivity) is given as “significantly lower”. For the same molecule, the “Implants Total” value (36p Tg mice; 100 mg/kg i.p. day 9 of gestation, laparotomy day 19, single dam) was 15 and 14, the “Implants Total” value (36p Tg mice; 100 mg/kg, Total of 2 dams) was 29 and the Implants/dam (36p Tg mice; 100 mg/kg, Total of 2 dams) was 14.5. The Live fetuses/dam (36p Tg mice; 100 mg/kg, Total of 2 dams) was 1.5, the “Malformations total (%)” value (36p Tg mice; 100 mg/kg, Total of 2 dams) was 33.3% and the “Malformations/Tg (%)” value (36p Tg mice; 100 mg/kg, Total of 2 dams) was 100.0%. For the same molecule, the “Malformations/nTg (%)” value (36p Tg mice; 100 mg/kg, Total of 2 dams) was 0.0%, the “Resorptions (%)” value (36p Tg mice; 100 mg/kg, Total of 2 dams) was 89.7% and the “Tg fetuses (%)” value (36p Tg mice; 100 mg/kg, Total of 2 dams) was 33.3%. For the same molecule, the “Tg/Malformations (%)” value (36p Tg mice; 100 mg/kg, Total of 2 dams) was 100.0%, the “nTg fetuses (%)” value (36p Tg mice; 100 mg/kg, Total of 2 dams) was 66.7% and the “Details of Malformation” value (36p Tg mice; 100 mg/kg) was 100 mg/kg: umbilical hernia (1). The “Malformations/Tg (%)” value (36p Tg mice; 100 mg/kg, single dam) was 100.0%, the “Malformations/nTg (%)” value (36p Tg mice; 100 mg/kg, single dam) was 0.0% and the “Resorptions (%)” value (36p Tg mice; 100 mg/kg, single dam) was 93.3% and 85.7%. For the same molecule, the “Tg/Malformations (%)” value (36p Tg mice; 100 mg/kg, single dam) was 100.0%, the “Implants Total” value (36p Tg mice; 200 mg/kg i.p. day 9 of gestation, laparotomy day 19, single dam) was 8 and 16 and the “Implants Total” value (36p Tg mice; 200 mg/kg, Total of 2 dams) was 24. For the same molecule, the Implants/dam (36p Tg mice; 200 mg/kg, Total of 2 dams) was 12.0, the Live fetuses/dam (36p Tg mice; 200 mg/kg, Total of 2 dams) was 3.0 and the “Malformations total (%)” value (36p Tg mice; 200 mg/kg, Total of 2 dams) was 16.7%. The “Malformations/Tg (%)” value (36p Tg mice; 200 mg/kg, Total of 2 dams) was 33.3%, the “Malformations/nTg (%)” value (36p Tg mice; 200 mg/kg, Total of 2 dams) was 0.0% and the “Resorptions (%)” value (36p Tg mice; 200 mg/kg, Total of 2 dams) was 70.8%. For the same molecule, the “Tg fetuses (%)” value (36p Tg mice; 200 mg/kg, Total of 2 dams) was 50.0%, the “Tg/Malformations (%)” value (36p Tg mice; 200 mg/kg, Total of 2 dams) was 100.0% and the “nTg fetuses (%)” value (36p Tg mice; 200 mg/kg, Total of 2 dams) was 50.0%. The “Details of Malformation” value (36p Tg mice; 200 mg/kg) was 200 mg/kg: umbilical hernia (1), the “Malformations total (%)” value (36p Tg mice; 200 mg/kg, single dam) was 16.7% and the “Malformations/Tg (%)” value (36p Tg mice; 200 mg/kg, single dam) was 33.3%. The “Malformations/nTg (%)” value (36p Tg mice; 200 mg/kg, single dam) was 0.0%, the “Resorptions (%)” value (36p Tg mice; 200 mg/kg, single dam) was 100.0% and 56.3% and the “Tg fetuses (%)” value (36p Tg mice; 200 mg/kg, single dam) was 50.0%. For the same molecule, the “Tg/Malformations (%)” value (36p Tg mice; 200 mg/kg, single dam) was 100.0% and the “nTg fetuses (%)” value (36p Tg mice; 200 mg/kg, single dam) was 50.0%.
For `CC(=O)Oc1ccccc1C(=O)O` [acetylsalicylic acid], the “teratogenicity in rats as compared with Rhesus monkeys” value (rats and Rhesus monkeys) is listed as “teratogenicity was observed at a lower dose” and the “effect on teratogenicity of thalidomide” value (rabbit) is listed as “suppresses the teratogenicity of thalidomide”.
In the case of `NC(=O)NO` [hydroxylurea], the “teratogenicity in rats as compared with Rhesus monkeys” value (rats and Rhesus monkeys) is listed as “teratogenicity was observed at a lower dose”.
In the case of `CN(Cc1cnc2nc(N)nc(N)c2n1)c1ccc(C(=O)N[C@@H](CCC(=O)O)C(=O)O)cc1` [methotrexate], the “teratogenicity in rats as compared with Rhesus monkeys” value (rats and Rhesus monkeys) is given as “teratogenicity was observed at a lower dose” and the “sensitivity of rats higher than that of monkeys” value (rats and Rhesus monkeys; teratogenic sensitivity, rats versus monkeys) is given as 20 times.
In the case of `CC1=C(/C=C/C(C)=C/C=C/C(C)=C/C(=O)O)C(C)(C)CCC1` [retinoic acid], the “teratogenicity in rats as compared with Rhesus monkeys” value (rats and Rhesus monkeys) is listed as “teratogenicity was observed at a lower dose”.
In the case of `CC[C@]1(O)C[C@H]2CN(CCc3c([nH]c4ccccc34)[C@@](C(=O)OC)(c3cc4c(cc3OC)N(C=O)[C@H]3[C@@](O)(C(=O)OC)[C@H](OC(C)=O)[C@]5(CC)C=CCN6CC[C@]43[C@@H]65)C2)C1` [vincristine], the “teratogenicity in rats as compared with Rhesus monkeys” value (rats and Rhesus monkeys) is given as “teratogenicity was observed at a lower dose”.
In the case of Aflatoxin B1, the “metabolic activation in mutagenicity test” value (Salmonella TA100) is listed as “efficiently activated”.
